# Patent US9107853B2, “Compositions containing phenolic compounds and hydrotropes for cosmetic use” (L'Oreal S.A., priority 2012, dated 2015)
# Experiments:
# Assay type in all cases: physicochemical
# [1] = Solubility in water, with or without hydrotropes, at room temperature
# [2] = Solubility in organic solvent PEG-4
# From the text: (§1) Crystallization or precipitation occurs after mixing the glycol phase and water phase.
# [3] = Stability of solutions (pH, dilution in water)
# From the text: as §1
# The solubility of baicalin can be increased by raising the concentration of hydrotropes.
structure (smiles),measurement,setting,value
O=C(O)[C@H]1O[C@@H](Oc2cc3oc(-c4ccccc4)cc(=O)c3c(O)c2O)[C@H](O)[C@@H](O)[C@@H]1O [Baicalin],water solubility,[1],< 0.01%
same,amount dissolved by PEG-4,[2],3%
same,degradation as a function of pH,[3]; aqueous,degradation happens at pH>5
same,stability of solution after dilution in water,[3]; hydrotrope solution diluted in water,still stable if diluted in water
same,stability of solution after dilution in water,"[3]; solution in organic solvent such as PEG-4, diluted in water",not stable any more
